Laboratory results: ChEMBL document CHEMBL3045745, “Antioxidant activity and inhibition effect on the growth of human colon carcinoma (HT-29) cells of esculetin from Cortex Fraxini” (Med Chem Res, 2011)
Values after ≈ are worked out from the molar mass of the structure shown. Active and inactive are the calls of the source. No cut-off for these calls is given here.

Experiments:
[1] = tested on: Radical scavenging activity; assay: Antioxidant activity assessed as DPPH radical scavenging at 0.5 mg/ml measured at 50 min by spectrophotometric analysis relative to control; assay type: functional
[2] = Antioxidant activity assessed as potassium ferricyanide reduction at 0.5 mg/ml after 20 min by spectrophotometric analysis; assay type: functional
[3] = Antioxidant activity assessed as potassium ferricyanide reduction at 0.05 mg/ml after 20 min by spectrophotometric analysis; assay type: functional
[4] = Antioxidant activity assessed as hydroxyl radical scavenging by resonance scattering method; assay type: functional
[5] = Antioxidant activity assessed as reduction of Mo(6) in phophomolybdenum at 0.5 mg/ml after 150 min by spectrophotometric analysis; assay type: functional
HT-29 [6] = assay: Growth inhibition of Homo sapiens (human) HT-29 cells assessed as inhibition of [3H]hypoxanthine incorporation at higher concentration incubated for 18 hr prior to [3H]hypoxanthine addition measured after 4 to 6 hr; assay type: functional, cell-based
HT-29 [7] = assay: Induction of Homo sapiens (human) HT-29 cell proliferation assessed as [3H]hypoxanthine incorporation at 0.25 to 2 mg/ml incubated for 18 hr prior to [3H]hypoxanthine addition measured after 4 to 6 hr; assay type: cell-based
[8] = tested on: Radical scavenging activity; assay: Antioxidant activity assessed as DPPH radical scavenging at 0.02 to 0.1 mg/ml measured within 10 min by spectrophotometric analysis; assay type: functional
[9] = tested on: Radical scavenging activity; assay: Antioxidant activity assessed as DPPH radical scavenging at 0.08 mg/ml measured at 50 min by spectrophotometric analysis relative to control; assay type: functional
[10] = Antioxidant activity assessed as reduction of Mo(6) in phophomolybdenum at 0.1 mg/ml after 150 min by spectrophotometric analysis; assay type: functional
[11] = tested on: Radical scavenging activity; assay: Antioxidant activity assessed as DPPH radical scavenging at 0.02 mg/ml measured at 50 min by spectrophotometric analysis relative to control; assay type: functional
[12] = tested on: Radical scavenging activity; assay: Antioxidant activity assessed as DPPH radical scavenging at 0.05 mg/ml measured at 50 min by spectrophotometric analysis relative to control; assay type: functional

IC50 [4] [µg/mL]	SMILES	Activity [1] [%]	Activity [2]	Activity [3]	Activity [5]	growth inhibition (GI) (HT-29 [6])	Activity (HT-29 [7])	Activity [8]	Activity [9] [%]	Activity [10]	Activity [11] [%]	Activity [12] [%]
2.883 (≈ 13.1 µM)	Cc1cc(C(C)(C)C)c(O)c(C(C)(C)C)c1 [BUTYLATED HYDROXYTOLUENE]	47.6	Active	Active	Active	–	–	–	–	–	–	–
0.091 (≈ 0.511 µM)	O=c1ccc2cc(O)c(O)cc2o1 [ESCULETIN]	–	Active	Active	–	Dose-dependent effect	Toxic	Active	79.7	Active	28.1	59.9
